The values that follow are results of earlier work, collected in patent US20050027113A1, “Compositions and methods relating to the daptomycin biosynthetic gene cluster” (priority 2001, published 2005).

For series [1] the following is noted: administration of daptomycin and an aminoglycoside.

As to `CCCCCCCCCC(=O)N[C@@H](Cc1c[nH]c2ccccc12)C(=O)N[C@H](CC(N)=O)C(=O)N[C@@H](CC(=O)O)C(=O)N[C@@H]1C(=O)NCC(=O)N[C@@H](CCCN)C(=O)N[C@@H](CC(=O)O)C(=O)N[C@H](C)C(=O)N[C@@H](CC(=O)O)C(=O)NCC(=O)N[C@H](CO)C(=O)N[C@@H]([C@H](C)CC(=O)O)C(=O)N[C@@H](CC(=O)c2ccccc2N)C(=O)O[C@@H]1C` [daptomycin], the “effect on renal toxicity caused by a co-administered aminoglycoside” value in series [1] is recorded as “may ameliorate renal toxicity caused by the aminoglycoside”. The “antibacterial activity against classically resistant strains versus classically susceptible strains” value in the series on gram-positive organisms (in vitro experiments) was “comparable”. Further, the “minimum inhibitory concentration (MIC) value against susceptible strains, relative to vancomycin” value in the series with gram-positive organisms (susceptible strains, fold lower than vancomycin) was around 4 fold. The “bactericidal activity against gram-positive organisms” value with gram-positive organisms (unlike glycopeptide antibiotics) was “rapid, concentration-dependent bactericidal activity”.
